From patent publication US10150751B2 (Merck Sharp & Dohme Corp., priority 2014, dated 2018)

Tests used:
[1] = target: hOX1R (orexin-1 receptor) (Homo sapiens, UniProt O43613); test: FLIPR Ca2+ flux assay, hOX1R; assay type: cell-based; settings: CHO cells expressing the orexin-1 receptor (head: hOX1R; method: rat); agonist 70 pM Ala-6,12 orexin-A
human orexin-2 receptor = human orexin-2 receptor (Homo sapiens (Human), UniProt O43614); test: FLIPR Ca2+ flux assay, hOX2R; assay type: cell-based; settings: CHO cells expressing the human orexin-2 receptor; agonist 70 pM Ala-6,12 orexin-A
Sequence of human orexin-2 receptor (O43614 whole entry): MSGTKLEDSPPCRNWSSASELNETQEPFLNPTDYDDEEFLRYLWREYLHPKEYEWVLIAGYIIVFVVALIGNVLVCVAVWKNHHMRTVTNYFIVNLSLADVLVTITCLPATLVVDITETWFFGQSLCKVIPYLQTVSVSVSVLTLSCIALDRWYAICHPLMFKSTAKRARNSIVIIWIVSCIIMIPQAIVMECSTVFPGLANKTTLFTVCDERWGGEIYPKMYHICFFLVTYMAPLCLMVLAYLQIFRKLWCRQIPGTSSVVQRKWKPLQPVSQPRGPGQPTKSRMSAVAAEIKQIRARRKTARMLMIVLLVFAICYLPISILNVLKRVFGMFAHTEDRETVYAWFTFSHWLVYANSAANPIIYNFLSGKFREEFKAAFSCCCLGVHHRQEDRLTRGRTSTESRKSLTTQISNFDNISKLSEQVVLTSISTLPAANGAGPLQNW
Description: The utility of the compounds in accordance with the present invention as orexin receptor OX1R and/or OX2R antagonists may be readily determined without undue experimentation by methodology well known in the art, including the “FLIPR Ca^2+ Flux Assay” (Okumura et al., Biochem. Biophys. Res. Comm. 280:976-981, 2001). In a typical experiment the OX1 and OX2 receptor antagonistic activity of the compounds of the present invention was determined in accordance with the following experimental method. For intracellular calcium measurements, Chinese hamster ovary (CHO) cells expressing the rat orexin-1 receptor or the human orexin-2 receptor, are grown in Iscove's modified DMEM containing 2 mM L-glutamine, […], 1% hypoxanthine-thymidine supplement, 100 U/ml penicillin, 100 μg/ml streptomycin and 10% heat-inactivated fetal calf serum (FCS). The cells are seeded at 20,000 cells/well into Becton-Dickinson black 384-well clear bottom sterile plates coated with poly-D-lysine. All reagents were from GIBCO-Invitrogen Corp. The seeded plates are incubated overnight at 37° C. and 5% CO2. Ala-6,12 human orexin-A as the agonist is prepared as a 1 mM stock solution in 1% bovine serum albumin (BSA) and diluted in assay buffer (HBSS containing 20 mM HEPES, 0.1% BSA and 2.5 mM probenecid, pH7.4) for use in the assay at a final concentration of 70pM. Test compounds are prepared as 10 mM stock solution in DMSO, then diluted in 384-well plates, first in DMSO, then assay buffer. On the day of the assay, cells are washed 3 times with 100 μl assay buffer and then incubated for 60 min (37° C., 5% CO2) in 60 μl assay buffer containing 1 μM Fluo-4AM ester, 0.02% pluronic acid, and 1% BSA. The dye loading solution is then aspirated and cells are washed 3 times with 100 μl assay buffer. 30 μl of that same buffer is left in each well. Within the Fluorescent Imaging Plate Reader (FLIPR, Molecular Devices), test compounds are added to the plate in a volume of 25 μl, incubated for 5 min and finally 25 μl of agonist is added. Fluorescence is measured for each well at 1 second intervals for 5 minutes and the height of each fluorescence peak is compared to the height of the fluorescence peak induced by 70 pM Ala-6,12 orexin-A with buffer in place of antagonist. For each antagonist, IC50 value (the concentration of compound needed to inhibit 50% of the agonist response) is determined. Alternatively, compound potency can be assessed by a radioligand binding assay (described in Bergman et. al. Bioorg. Med. Chem. Lett. 2008, 18, 1425-1430) in which the inhibition constant (Ki) is determined in membranes prepared from CHO cells expressing either the OX1 or OX2 receptor. The intrinsic orexin receptor antagonist activity of a compound which may be used in the present invention may be determined by these assays.

SMILES | IC50 [1] | hOX2R FLIPR IC50 (human orexin-2 receptor) | IC50 (human orexin-2 receptor)
C[C@@H]1C[C@@H](N(C)c2cc(C#N)ccn2)CN1C(=O)c1ccccc1-n1nccn1 [Example 23, 2-(((3R,5R)-1-(2-(2H-1,2,3-triazol-2-yl)benzoyl)-5-methylpyrrolidin-3-yl)(methyl)amino)isonicotinonitrile] | > 10 µM | 120/5 | –
C[C@@H]1C[C@@H](Nc2cc(Cl)ccn2)CN1C(=O)c1ccccc1-n1nccn1 [Example 15, (2-(2H-1,2,3-triazol-2-yl)phenyl)((2R,4R)-4-((4-chloropyridin-2-yl)amino)-2-methylpyrrolidin-1-yl)methanone] | 1.16 µM | – | 23.1 nM
C[C@@H]1C[C@@H](Nc2ccc(F)cn2)CN1C(=O)c1ccccc1-n1nccn1 [Example 11, (2-(2H-1,2,3-triazol-2-yl)phenyl)((2R,4R)-4-((5-fluoropyridin-2-yl)amino)-2-methylpyrrolidin-1-yl)methanone] | 6.29 µM | – | 175 nM
COC(=O)c1c(OC)ccnc1N[C@@H]1C[C@@H](C)N(C(=O)c2ccccc2-n2nccn2)C1 [Example 32, Methyl 2-(((3R,5R)-1-(2-(2H-1,2,3-triazol-2-yl)benzoyl)-5-methylpyrrolidin-3-yl)amino)-4-methoxynicotinate] | 6.75 µM | – | 29.7 nM
C[C@@H]1C[C@@H](Nc2cc(C#N)ccn2)CN1C(=O)c1ccccc1-n1nccn1 [Example 19, 2-(((3R,5R)-1-(2-(2H-1,2,3-triazol-2-yl)benzoyl)-5-methylpyrrolidin-3-yl)amino)isonicotinonitrile] | > 10 µM | – | 22.9 nM
COC(=O)c1c(C#N)ccnc1N[C@@H]1C[C@@H](C)N(C(=O)c2ccccc2-n2nccn2)C1 [Example 38, Methyl 2-(((3R,5R)-1-(2-(2H-1,2,3-triazol-2-yl)benzoyl)-5-methylpyrrolidin-3-yl)amino)-4-cyanonicotinate] | 1.55 µM | – | 14.6 nM
C[C@@H]1C[C@@H](Nc2cc(C(F)F)ccn2)CN1C(=O)c1cscc1-n1nccn1 [Example 28, (4-(2H-1,2,3-triazol-2-yl)thiophen-3-yl)((2R,4R)-4-((4-(difluoromethyl)pyridin-2-yl)amino)-2-methylpyrrolidin-1-yl)methanone] | > 10 µM | – | 102 nM
CCOc1ncccc1C(=O)N1C[C@H](Nc2cc(OCC(F)F)ccn2)C[C@H]1C [Example 6, ((2R,4R)-4-((4-(2,2-difluoroethoxy)pyridin-2-yl)amino)-2-methylpyrrolidin-1-yl)(2-ethoxypyridin-3-yl)methanone] | > 10 µM | – | 989 nM
C[C@@H]1C[C@@H](N(C)c2cc(Br)ccn2)CN1C(=O)c1ccccc1-n1nccn1 [Example 35, (2-(2H-1,2,3-Triazol-2-yl)phenyl)((2R,4R)-4-((4-bromopyridin-2-yl)(methyl)amino)-2-methylpyrrolidin-1-yl)methanone] | 2.25 µM | – | 136 nM
C[C@@H]1C[C@@H](Nc2cc(C#N)ccn2)CN1C(=O)c1ccccc1-n1ncnn1 [Example 29, 2-(((3R,5R)-1-(2-(2H-tetrazol-2-yl)benzoyl)-5-methylpyrrolidin-3-yl)amino)isonicotinonitrile] | > 10 µM | – | 302 nM
C[C@@H]1C[C@@H](Nc2cc(F)ccn2)CN1C(=O)c1ccccc1-n1nccn1 [Example 17, (2-(2H-1,2,3-triazol-2-yl)phenyl)((2R,4R)-4-((4-fluoropyridin-2-yl)amino)-2-methylpyrrolidin-1-yl)methanone] | > 10 µM | – | 119 nM
